Results on eight compounds are retold here after the NIST ThermoML archive (doi:10.1016/j.jct.2008.08.007).

Numbers after ± are expanded uncertainties.

This data set is described as follows: molar heat capacity at constant pressure. The note with it: 101.33 kPa, Crystal, Small sample (50 mg) DSC.

Consider `O=CC[C@H](O)[C@H](O)CO` [2-deoxy-D-erythropentose], for which the “molar heat capacity at constant pressure” value (288.15 K) came out at 171.9 ± 4.5 J/K/mol; the “molar heat capacity at constant pressure” value (293.15 K) was found to be 167.6 ± 3.4 J/K/mol; the “molar heat capacity at constant pressure” value (298.15 K) turned out to be 162 ± 3.2 J/K/mol; the “molar heat capacity at constant pressure” value (303.15 K) is given as 163.6 ± 3.9 J/K/mol; the “molar heat capacity at constant pressure” value (308.15 K) was 171.7 ± 3.7 J/K/mol; the “molar heat capacity at constant pressure” value (313.15 K) was found to be 178.4 ± 3.6 J/K/mol. Further, the “molar heat capacity at constant pressure” value (318.15 K) is 184.1 ± 4.8 J/K/mol, the “molar heat capacity at constant pressure” value (323.15 K) came out at 197.4 ± 3.7 J/K/mol and the “molar heat capacity at constant pressure” value (328.15 K) was determined as 222 ± 4.6 J/K/mol.

In the case of `OC[C@H]1OC(O)C[C@@H](O)[C@@H]1O` (stereo partly drawn) [2-deoxy-D-glucose], the “molar heat capacity at constant pressure” value was 189.6 ± 6 J/K/mol (288.15 K); 195.8 ± 6.4 J/K/mol (293.15 K); 200.2 ± 5.9 J/K/mol (298.15 K); 201 ± 5.9 J/K/mol (303.15 K); 204.5 ± 6 J/K/mol (308.15 K); 206.9 ± 6.1 J/K/mol (313.15 K). The “molar heat capacity at constant pressure” value amounted to 209 ± 5.6 J/K/mol (318.15 K); 213.6 ± 5.2 J/K/mol (323.15 K); 214.7 ± 5.3 J/K/mol (328.15 K); 218.4 ± 5.5 J/K/mol (333.15 K); 224.9 ± 5.4 J/K/mol (338.15 K); 226.4 ± 4 J/K/mol (343.15 K). Further, the “molar heat capacity at constant pressure” value is on record as 233 ± 3.9 J/K/mol (348.15 K), 235.4 ± 4.2 J/K/mol (353.15 K) and 244 ± 4.3 J/K/mol (358.15 K).

For the compound `O=C[C@H](O)[C@@H](O)[C@@H](O)[C@H](O)CO` [(+)-galactose], the “molar heat capacity at constant pressure” value is, setting by setting: (288.15 K) 203.3 ± 3.5 J/K/mol; (293.15 K) 210.7 ± 3.6 J/K/mol; (298.15 K) 213.7 ± 4.9 J/K/mol; (303.15 K) 217.5 ± 3.8 J/K/mol; (308.15 K) 222.3 ± 4.8 J/K/mol; (313.15 K) 227.1 ± 4.5 J/K/mol. Besides, the “molar heat capacity at constant pressure” value is on record as 229.4 ± 3.9 J/K/mol (318.15 K); 235.6 ± 5.1 J/K/mol (323.15 K); 236.8 ± 4.6 J/K/mol (328.15 K); 242.8 ± 4.4 J/K/mol (333.15 K); 247 ± 4 J/K/mol (338.15 K); 251.2 ± 4.8 J/K/mol (343.15 K). In addition, the “molar heat capacity at constant pressure” value is 254.7 ± 4.6 J/K/mol (348.15 K), 257.5 ± 4.3 J/K/mol (353.15 K) and 265.1 ± 4.8 J/K/mol (358.15 K).

For `OC[C@H]1O[C@@H](O[C@H]2[C@H](O)[C@@H](O)[C@H](O)O[C@@H]2CO)[C@H](O)[C@@H](O)[C@@H]1O` [D-cellobiose], the “molar heat capacity at constant pressure” value is 407.8 ± 7.4 J/K/mol (288.15 K); 431 ± 7.6 J/K/mol (293.15 K); 436.1 ± 8.5 J/K/mol (298.15 K); 445 ± 8.3 J/K/mol (303.15 K); 443.1 ± 7.8 J/K/mol (308.15 K); 446.9 ± 8.6 J/K/mol (313.15 K). Moreover, the “molar heat capacity at constant pressure” value is, setting by setting: (318.15 K) 448.7 ± 7.8 J/K/mol; (323.15 K) 463.2 ± 8.5 J/K/mol; (328.15 K) 463.5 ± 7.8 J/K/mol; (333.15 K) 473.1 ± 7.9 J/K/mol; (338.15 K) 481.1 ± 8.8 J/K/mol; (343.15 K) 490.7 ± 8.4 J/K/mol. In addition, the “molar heat capacity at constant pressure” value by setting is: (348.15 K) 503.2 ± 8.5 J/K/mol; (353.15 K) 515.8 ± 8.8 J/K/mol; (358.15 K) 534.8 ± 9 J/K/mol.

On to `O=C(CO)[C@@H](O)[C@H](O)[C@H](O)CO` [D-fructose], for which the “molar heat capacity at constant pressure” value reads like this: (288.15 K) 220.3 ± 7.5 J/K/mol; (293.15 K) 223.6 ± 7.5 J/K/mol; (298.15 K) 227.7 ± 8.4 J/K/mol; (303.15 K) 233.3 ± 7.2 J/K/mol; (308.15 K) 236.9 ± 7.6 J/K/mol; (313.15 K) 242.4 ± 7.6 J/K/mol. The “molar heat capacity at constant pressure” value was found to be 247.3 ± 7.8 J/K/mol (318.15 K); 251.5 ± 8 J/K/mol (323.15 K); 251.8 ± 7.9 J/K/mol (328.15 K); 255.1 ± 8.6 J/K/mol (333.15 K); 259.6 ± 7.9 J/K/mol (338.15 K); 260.9 ± 7.6 J/K/mol (343.15 K). The “molar heat capacity at constant pressure” value runs as follows: (348.15 K) 266.4 ± 8.1 J/K/mol; (353.15 K) 275.3 ± 8.7 J/K/mol; (358.15 K) 290.4 ± 7.9 J/K/mol.

Consider `O=C[C@@H](O)[C@@H](O)[C@H](O)[C@H](O)CO` [D-mannose], for which the “molar heat capacity at constant pressure” value (288.15 K) came out at 188.7 ± 6.2 J/K/mol; the “molar heat capacity at constant pressure” value (293.15 K) was determined as 200.7 ± 6.1 J/K/mol; the “molar heat capacity at constant pressure” value (298.15 K) is 206.6 ± 6.1 J/K/mol; the “molar heat capacity at constant pressure” value (303.15 K) is given as 215 ± 5.5 J/K/mol; the “molar heat capacity at constant pressure” value (308.15 K) is listed as 223.3 ± 6.8 J/K/mol; the “molar heat capacity at constant pressure” value (313.15 K) was 228.2 ± 5.6 J/K/mol. In addition, the “molar heat capacity at constant pressure” value is on record as 231.6 ± 5.6 J/K/mol (318.15 K); 234.5 ± 5.7 J/K/mol (323.15 K); 236.5 ± 6.7 J/K/mol (328.15 K); 242.1 ± 5.3 J/K/mol (333.15 K); 245.2 ± 5.4 J/K/mol (338.15 K); 249 ± 5.6 J/K/mol (343.15 K). In addition, the “molar heat capacity at constant pressure” value (348.15 K) turned out to be 252.4 ± 6.3 J/K/mol, the “molar heat capacity at constant pressure” value (353.15 K) is 254.1 ± 6.3 J/K/mol and the “molar heat capacity at constant pressure” value (358.15 K) is recorded as 260.2 ± 7 J/K/mol.

For the compound `O=C[C@H](O)[C@H](O)[C@H](O)CO` [D-ribose], the “molar heat capacity at constant pressure” value (288.15 K) was 171.3 ± 4.2 J/K/mol; the “molar heat capacity at constant pressure” value (293.15 K) is 179.4 ± 3.5 J/K/mol; the “molar heat capacity at constant pressure” value (298.15 K) was found to be 183.2 ± 3.7 J/K/mol; the “molar heat capacity at constant pressure” value (303.15 K) stood at 188.8 ± 3.9 J/K/mol; the “molar heat capacity at constant pressure” value (308.15 K) is on record as 193.9 ± 3.8 J/K/mol; the “molar heat capacity at constant pressure” value (313.15 K) was 201.3 ± 4 J/K/mol. In addition, the “molar heat capacity at constant pressure” value (318.15 K) came out at 209 ± 3.9 J/K/mol, the “molar heat capacity at constant pressure” value (323.15 K) was determined as 224.6 ± 4.2 J/K/mol and the “molar heat capacity at constant pressure” value (328.15 K) worked out at 245.1 ± 4.3 J/K/mol.

Turning to `OC[C@H]1O[C@@](CO)(O[C@H]2O[C@H](CO)[C@@H](O)[C@H](O)[C@H]2O)[C@@H](O)[C@@H]1O` [D-sucrose], the “molar heat capacity at constant pressure” value (288.15 K) stood at 408.5 ± 7.6 J/K/mol; the “molar heat capacity at constant pressure” value (293.15 K) is 416.6 ± 6.9 J/K/mol; the “molar heat capacity at constant pressure” value (298.15 K) is given as 424.3 ± 7 J/K/mol; the “molar heat capacity at constant pressure” value (303.15 K) was 429.4 ± 7.7 J/K/mol; the “molar heat capacity at constant pressure” value (308.15 K) turned out to be 437.5 ± 8.2 J/K/mol; the “molar heat capacity at constant pressure” value (313.15 K) was determined as 445.5 ± 8.2 J/K/mol. Further, the “molar heat capacity at constant pressure” value reads like this: (318.15 K) 451 ± 8 J/K/mol; (323.15 K) 466.2 ± 8 J/K/mol; (328.15 K) 472.6 ± 8 J/K/mol; (333.15 K) 482.5 ± 8.5 J/K/mol; (338.15 K) 490.3 ± 8.1 J/K/mol; (343.15 K) 498.8 ± 7.8 J/K/mol. Besides, the “molar heat capacity at constant pressure” value is, setting by setting: (348.15 K) 506.7 ± 7.9 J/K/mol; (353.15 K) 513.9 ± 8.2 J/K/mol; (358.15 K) 522 ± 8.1 J/K/mol.
